Read-outs that look alike come from different tables or passages of the source.
Experiments:
[1] = test system: human breast cancer cell MDA-MB-468; experiment: MTT proliferation assay, MDA-MB-468; type: cell-based; settings: Homo sapiens, MDA-MB-468, 168 h, 7 days, single agent, read-out: IC50, inhibition of proliferation of MDA-MB-468
Protocol: Determination of the Inhibitory Effect of the Compound of Example 2 and its Analogues on the Proliferation of Human Breast Cancer Cell MDA-MB-468 Using MTT Assay
The human breast cancer cells MDA-MB-468 were cultured in RPMI 1640 medium with 10% FBS and used at 90% confluence. The MDA-IVB-468 cells were digested with trypsinase and centrifuged at 800 rpm for 5 minutes. The supernatant was discarded and the cell pellets were resuspended with fresh medium and counted. Cells were seeded to 96-well cell culture plates with appropriate cell density and incubated overnight at 37° C., 5% CO2. […] 5 μL of solutions of each concentration was added to 120 μL of medium (diluted by 25 times) and mixed by shaking. The culture medium of cells cultured overnight was discarded and replaced with 195 μL/well of fresh medium (RPMI 1640+5% FBS) and 5 μL/well of diluted medium containing the test compound of corresponding concentrations (the final concentration of DMSO was 1%), and the culture plate was then returned to 5% CO2 incubator at 37° C. for 7 days (on the fourth day, dressing was changed once and culture was continued). On the day of experiment, culture medium was discarded and replaced with 100 μL/well of fresh serum-free DMEM medium containing MTT (0.5 mg/mL), and the culture was continued. After 4 hours, medium was discarded and replaced with 100 μL/well of DMSO, the plates were shaken for 10 minutes in darkness and the absorbance was measured at the wavelengths of 552 and 693 nm using a multi-function plate reader. Graph Pad Prism 6.0 was used to analyze the data. The inhibitory effects of compounds on cell proliferation were plotted based on cell viability vs. the logarithm of compound concentration. Cell viability %=(ODcompound−ODbackground)/(ODDMSO−ODbackground)×100.
Table 4 summarizes the inhibitory effect data (IC50) of some compounds on the proliferation of human breast cancer cell MDA-MB-468.

ATM kinase = target: T1, ATM kinase (Homo sapiens, UniProt Q13315); experiment: In vitro ATM kinase assay (Cisbio HTRF, p53 substrate); type: biochemical; settings: 30 μM ATP; for inhibition at 0.0001 µM: Conc. 0.1 nM; for inhibition at 0.0001 µM / inhibition at 0.001 µM / inhibition at 0.01 µM: read-out: Inh % (inhibitory effect on ATM kinase activity); for inhibition at 0.001 µM: Conc. 1 nM; for inhibition at 0.01 µM: Conc. 10 nM
T1 construct: purchased Eurofins 14-933
T1 sequence (Q13315 whole entry): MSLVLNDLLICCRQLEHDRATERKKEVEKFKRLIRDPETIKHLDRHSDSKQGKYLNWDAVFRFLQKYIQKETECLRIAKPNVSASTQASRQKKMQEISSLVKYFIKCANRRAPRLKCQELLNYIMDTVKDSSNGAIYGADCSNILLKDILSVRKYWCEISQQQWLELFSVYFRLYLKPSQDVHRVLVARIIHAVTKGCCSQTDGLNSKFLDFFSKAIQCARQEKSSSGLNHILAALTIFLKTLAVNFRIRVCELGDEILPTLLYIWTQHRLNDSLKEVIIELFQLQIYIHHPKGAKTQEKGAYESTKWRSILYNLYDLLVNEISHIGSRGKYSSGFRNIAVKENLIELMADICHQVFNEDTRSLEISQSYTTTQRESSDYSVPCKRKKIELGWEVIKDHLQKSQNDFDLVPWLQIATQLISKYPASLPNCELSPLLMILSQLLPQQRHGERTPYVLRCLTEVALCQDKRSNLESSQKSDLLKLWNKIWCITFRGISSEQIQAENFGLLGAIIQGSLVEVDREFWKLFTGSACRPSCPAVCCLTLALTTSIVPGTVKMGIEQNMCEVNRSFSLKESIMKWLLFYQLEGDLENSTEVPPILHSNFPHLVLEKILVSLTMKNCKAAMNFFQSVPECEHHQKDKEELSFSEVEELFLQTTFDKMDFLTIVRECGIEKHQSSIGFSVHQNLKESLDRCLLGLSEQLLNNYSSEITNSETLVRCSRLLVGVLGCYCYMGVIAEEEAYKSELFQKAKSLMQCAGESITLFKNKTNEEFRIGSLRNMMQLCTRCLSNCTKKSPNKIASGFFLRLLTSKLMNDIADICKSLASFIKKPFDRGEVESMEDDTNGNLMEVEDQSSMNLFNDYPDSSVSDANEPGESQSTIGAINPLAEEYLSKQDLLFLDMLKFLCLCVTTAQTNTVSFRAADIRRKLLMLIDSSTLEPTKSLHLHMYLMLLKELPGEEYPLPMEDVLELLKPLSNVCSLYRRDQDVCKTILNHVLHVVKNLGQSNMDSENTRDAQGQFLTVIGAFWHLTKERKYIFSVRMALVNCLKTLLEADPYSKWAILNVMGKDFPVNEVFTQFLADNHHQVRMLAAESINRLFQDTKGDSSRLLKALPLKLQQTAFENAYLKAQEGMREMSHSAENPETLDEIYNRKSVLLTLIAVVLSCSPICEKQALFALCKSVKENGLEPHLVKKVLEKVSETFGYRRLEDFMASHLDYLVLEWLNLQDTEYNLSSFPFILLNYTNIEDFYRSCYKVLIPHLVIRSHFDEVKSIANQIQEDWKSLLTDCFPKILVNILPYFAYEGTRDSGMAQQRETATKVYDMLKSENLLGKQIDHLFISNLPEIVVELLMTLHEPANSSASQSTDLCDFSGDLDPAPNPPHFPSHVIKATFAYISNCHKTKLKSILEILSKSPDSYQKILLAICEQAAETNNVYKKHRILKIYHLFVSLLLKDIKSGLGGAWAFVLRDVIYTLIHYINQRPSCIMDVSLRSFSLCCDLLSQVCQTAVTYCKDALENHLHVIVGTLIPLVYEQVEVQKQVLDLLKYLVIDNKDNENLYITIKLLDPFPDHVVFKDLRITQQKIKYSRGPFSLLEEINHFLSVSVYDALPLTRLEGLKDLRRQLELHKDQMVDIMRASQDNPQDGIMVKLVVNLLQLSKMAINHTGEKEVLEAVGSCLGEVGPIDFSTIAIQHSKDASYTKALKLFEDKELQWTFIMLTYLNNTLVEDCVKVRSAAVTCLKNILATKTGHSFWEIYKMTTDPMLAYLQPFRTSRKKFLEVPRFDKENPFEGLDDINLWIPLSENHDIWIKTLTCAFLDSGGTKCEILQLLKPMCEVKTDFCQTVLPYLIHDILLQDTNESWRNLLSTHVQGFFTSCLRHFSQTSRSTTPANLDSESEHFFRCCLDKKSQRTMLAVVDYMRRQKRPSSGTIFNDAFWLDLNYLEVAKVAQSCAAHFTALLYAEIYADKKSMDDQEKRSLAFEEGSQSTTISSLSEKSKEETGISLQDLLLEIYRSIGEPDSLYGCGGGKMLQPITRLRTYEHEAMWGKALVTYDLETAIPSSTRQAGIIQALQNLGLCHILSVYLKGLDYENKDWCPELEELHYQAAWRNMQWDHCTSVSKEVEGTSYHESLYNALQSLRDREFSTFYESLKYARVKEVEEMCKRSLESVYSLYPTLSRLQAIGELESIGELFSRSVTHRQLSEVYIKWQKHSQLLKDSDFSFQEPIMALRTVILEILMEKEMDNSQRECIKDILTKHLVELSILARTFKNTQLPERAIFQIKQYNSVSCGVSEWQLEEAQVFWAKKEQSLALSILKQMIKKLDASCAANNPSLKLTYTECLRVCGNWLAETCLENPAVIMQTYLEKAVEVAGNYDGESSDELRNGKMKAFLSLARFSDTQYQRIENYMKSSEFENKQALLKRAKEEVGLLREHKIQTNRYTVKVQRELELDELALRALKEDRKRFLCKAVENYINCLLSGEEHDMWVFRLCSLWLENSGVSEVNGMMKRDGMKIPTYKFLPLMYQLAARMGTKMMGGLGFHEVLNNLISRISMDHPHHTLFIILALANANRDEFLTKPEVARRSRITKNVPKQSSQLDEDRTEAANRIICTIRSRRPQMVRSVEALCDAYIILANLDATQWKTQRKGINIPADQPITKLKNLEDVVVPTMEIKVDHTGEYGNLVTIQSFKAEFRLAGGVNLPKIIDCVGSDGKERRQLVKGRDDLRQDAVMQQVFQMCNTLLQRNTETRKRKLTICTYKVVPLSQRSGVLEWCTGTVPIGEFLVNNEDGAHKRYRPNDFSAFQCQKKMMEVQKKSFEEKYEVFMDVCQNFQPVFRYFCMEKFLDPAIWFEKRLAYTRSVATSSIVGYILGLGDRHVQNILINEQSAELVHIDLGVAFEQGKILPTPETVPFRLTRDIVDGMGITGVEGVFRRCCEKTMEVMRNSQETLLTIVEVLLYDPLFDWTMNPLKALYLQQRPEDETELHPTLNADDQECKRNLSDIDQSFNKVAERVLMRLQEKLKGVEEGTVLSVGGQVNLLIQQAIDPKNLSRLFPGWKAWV
Protocol: Determination of the Inhibitory Effect In Vitro of the Compound of Example 2 and its Analogues on ATM Using In Vitro ATM Kinase Assay
ATM enzymatic activity was measured using Cisbio's HTRF reagent in a 384-well plate (Greiner, #784075). […] The mixtures were centrifuged at 1000 rpm for 1 minute, and reacted in dark for 30 minutes at room temperature. Then, 5 μL of EDTA termination solution (250 mm) was added to terminate the reaction. After 5 μL of detection mixture (Anti-phospho-p53 (ser15)-K (Cisbio, #61P08KAE, 0.084 ng/μL) and Anti-GST-d2 (Cisbio, #61GSTDLA, 5.00 ng/μL)) was finally added to each well, the mixtures were cultured at room temperature over night, and the fluorescence values at 665 nm and 615 nm were measured on Envision 2104. The final concentration of each reagent of the experiment was as follows: 12.5 mM HEPES (pH8.0), 0.5% glycerol, 0.005% Brij-35, 0.625 mM DTT, 0.0125% BSA, 15 nM p53, 0.25 ng/μL ATM, 30 μM ATP, 2.5 mM Mg(AcO)2, 2.5 mM MnCl2, 62.5 mM EDTA, 0.021 ng/μL Anti-phospho-p53, 1.25 ng/μL Anti-GST-d2.
Relative fluorescence ratio was calculated: Ratio665 nm/615 nm−Ratiobackground, and inhibition rate %=(1−(relative fluorescence ratio of test compound well−relative fluorescence ratio of positive control well)/(relative fluorescence ratio of negative control well−relative fluorescence ratio of positive control well))×100 was calculated. Data were analyzed using GraphPad Prism6.0 and fitted using the curve equation: Y=Bottom+(Top−Bottom)/(1+10^((Log IC50−X)*HillSlope)), and IC50 values were calculated.

[2] = test system: human colon cancer cell SW620; experiment: MTT proliferation assay in combination with CPT-11, SW620; type: cell-based; settings: medium containing 205 nM CPT-11, 5 days, read-out: IC50, inhibition of proliferation of SW620 combined with CPT-11
Protocol: Determination of the Inhibitory Effect of the Compound of Example 2 and its Analogues in Combination with CPT-11 on the Proliferation of Human Colon Cancer Cell SW620 Using MTT Assay
The human colon cancer cells SW620 were cultured in RPMI 1640 medium with 10% FBS and used at about 90% confluence for experiments. The SW620 cells were digested with trypsinase and centrifuged at 800 rpm for 5 minutes. The supernatant was discarded and the cell pellets were resuspended with fresh medium (RPMI 1640+10% FBS). The cells were seeded into 96-well cell culture plates with appropriate cell density and incubated at 37° C. overnight in a 5% CO2 incubator. […] The first concentration was 1 μM or 0.333 μM, the last concentration was DMSO negative control (0 μM). 5 μL of solutions of each concentration was added to 120 μL of medium (a 25 times dilution) and mixed by shaking. The cells were cultured overnight and the culture medium was replaced with 195 μL/well of fresh medium containing 205 nM CPT-11 and 5 μL/well of medium containing the test compound (the final concentration of DMSO was 1%). The culture plates were returned to incubator and cultured at 37° C., 5% CO2 for 5 days. At the day of experiment, medium was discarded and replaced with 100 μL of fresh serum-free DMEM medium containing MTT (0.5 mg/mL), and the culture was continued. 4 hours later, the medium was discarded and replaced with 100 μL/well of DMSO, the plate was shaken for 10 minutes in dark and the absorbance was measured at the wavelengths of 552 and 690 nm using a multi-function plate reader. Data were analyzed by Graph Pad Prism 6.0. The inhibitory effects of compounds on cell proliferation were plotted based on cell viability vs. the logarithm of compound concentration. Cell viability %=(ODcompound−ODbackground)/(ODDMSO−ODbackground)×100.
Table 3 summarizes the inhibitory effect data (IC50) of some compounds combined with CPT-11 on the proliferation of human colon cancer cell SW620.

IC50 [1]	inhibition at 0.0001 µM (ATM kinase)	inhibition at 0.001 µM (ATM kinase)	inhibition at 0.01 µM (ATM kinase)	IC50 [2]	IC50 (ATM kinase)	IC50 ([2]; Homo sapiens, SW-620, 120 h)	SMILES
22.6 nM	18%	86%	96%	25.9 nM			Cc1nc(C2CCOCC2)n2c1cnc1ccc(-c3ccc(N4CCC(N(C)C)CC4)c(Cl)c3)cc12 [Example 7, N,N-dimethyl-1-(2-chloro-4-(3-methyl-1-(tetrahydro-2H-pyran-4-yl)imidazo[1,5-a]quinoxalin-8-yl)phenyl)piperidin-4-amine]
24.8 nM	27%	94%	99%	24.1 nM			Cc1nc(C2CCOCC2)n2c1cnc1ccc(-c3ccc(N4CCC(N(C)C)CC4)c(C(F)(F)F)c3)cc12 [Example 8]
23.1 nM	28%	96%	99%	24 nM			Cc1nc(C2CCOCC2)n2c1cnc1ccc(-c3ccc(N4CCC(N)CC4)c(C(F)(F)F)c3)cc12 [Example 9, 1-(4-(3-methyl-1-(tetrahydro-2H-pyran-4-yl)imidazo[1,5-a]quinoxalin-8-yl)-2-(trifluoromethyl)phenyl)piperidin-4-amine]
16.4 nM	13%	74%	99%	16.7 nM			CNC1CCN(c2ccc(-c3ccc4ncc5c(C)nc(C6CCOCC6)n5c4c3)cc2C(F)(F)F)CC1 [Example 10, N-methyl-1-(4-(3-methyl-1-(tetrahydro-2H-pyran-4-yl)imidazo[1,5-a]quinoxalin-8-yl)-2-(trifluoromethyl)phenyl)piperidin-4-amine]
31.1 nM	11%	78%	97%	30 nM			CCNC1CCN(c2ccc(-c3ccc4ncc5c(C)nc(C6CCOCC6)n5c4c3)cc2C(F)(F)F)CC1 [Example 11, N-ethyl-1-(4-(3-methyl-1-(tetrahydro-2H-pyran-4-yl)imidazo[1,5-a]quinoxalin-8-yl)-2-(trifluoromethyl)phenyl)piperidin-4-amine]
14.4 nM	40%	91%	98%	15.7 nM			Cc1nc(C2CCOCC2)n2c1cnc1ccc(-c3ccc(OCCCN4CCCCC4)nc3)cc12 [Example 12, 3-methyl-8-(6-(3-(piperidin-1yl)propoxy)pyridin-3yl)-1-(tetrahydro-2H-pyran-4-yl)imidazo[1,5-a]quinoxaline]
782 nM			15%	> 1000 nM			Cc1nn(C)cc1-c1ccc2ncc3c(C)nc(C4CCOCC4)n3c2c1 [Example 13, 8-(1,3-dimethyl-1H-pyrazol-4-yl)-3-methyl-1-(tetrahydro-2H-pyran-4-yl)imidazo[1,5-a]quinoxaline]
26 nM			93%	39.7 nM			Cc1nc(N2CCOCC2)n2c1cnc1ccc(-c3ccc(OCCCN(C)C)nc3)cc12 [Example 14, N,N-dimethyl-3-((5-(3-methyl-1-morpholinylimidazo[1,5-a]quinoxalin-8-yl)pyridin-2-yl)oxy)propan-1-amine]
7.98 nM					0.31 nM	9.3 nM	Cc1nc(N2C[C@@H](C)O[C@@H](C)C2)n2c1cnc1ccc(-c3ccc(OCCCN(C)C)nc3)cc12 [Example 15, N,N-dimethyl-3-((5-(1-((2S,6R)-2,6-dimethylmorpholino)-3-methylimidazo[1,5-a]quinoxalin-8-yl)pyridin-2-yl)oxy)propan-1-amine]
10.6 nM	71%	89%	97%	8.2 nM			Cc1nc(N2CCCCC2)n2c1cnc1ccc(-c3ccc(OCCCN(C)C)nc3)cc12 [Example 16, N,N-dimethyl-3-((5-(3-methyl-1-(piperidin-1-yl)imidazo[1,5-a]quinoxalin-8-yl)pyridin-2-yl)oxy)propan-1-amine]

Reference: patent US12653830B2, “Substituted imidazoquinoxaline compounds and uses thereof” (Impact Therapeutics (Shanghai), Inc, priority 2019, dated 2026)
